Patent publication US20050009840A1 (SUGEN, INC., priority 2003, published 2005)

What follows are compounds tested against T1, HGFR (Homo sapiens, UniProt P08581) (assay: HGFR continuous-coupled spectrophotometric assay). Details: at 50 nM; Table 5, library procedure 40; read-out: % inhibition (percent c-MET inhibition).
T1 construct: purchased Upstate 14-526
Format: biochemical

T1 sequence (P08581 974-1390 limits assumed): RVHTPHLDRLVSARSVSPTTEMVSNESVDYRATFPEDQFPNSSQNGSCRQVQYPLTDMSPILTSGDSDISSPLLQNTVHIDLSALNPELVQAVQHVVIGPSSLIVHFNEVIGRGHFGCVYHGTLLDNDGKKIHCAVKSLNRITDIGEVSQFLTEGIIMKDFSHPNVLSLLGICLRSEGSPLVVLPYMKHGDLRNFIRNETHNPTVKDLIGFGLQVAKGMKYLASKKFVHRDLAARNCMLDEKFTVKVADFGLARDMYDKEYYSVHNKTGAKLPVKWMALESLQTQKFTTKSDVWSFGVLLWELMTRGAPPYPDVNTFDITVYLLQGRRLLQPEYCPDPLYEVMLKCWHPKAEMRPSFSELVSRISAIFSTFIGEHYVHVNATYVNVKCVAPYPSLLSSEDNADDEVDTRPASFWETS

inhibition at 0.05 µM	Structure (SMILES)
85%	CCN(CC)CCN(C)C(=O)c1ccc(-c2cnc(N)c(OC(C)c3c(Cl)ccc(F)c3Cl)c2)cc1 [Example L-43]
55%	CCN(CC)C(=O)C1CCCN(C(=O)c2ccc(-c3cnc(N)c(OC(C)c4c(Cl)ccc(F)c4Cl)c3)cc2)C1 [Example L-44]
78%	CC(Oc1cc(-c2ccc(C(=O)N3CCN(CC(=O)N4CCCC4)CC3)cc2)cnc1N)c1c(Cl)ccc(F)c1Cl [Example L-46]
83%	C[C@H](Oc1cc(-c2ccc(C(=O)N3CCCC[C@@H]3CCO)cc2)cnc1N)c1c(Cl)ccc(F)c1Cl [Example L-47]
74%	CC(Oc1cc(-c2ccc(C(=O)N3CCN(CCCO)CC3)cc2)cnc1N)c1c(Cl)ccc(F)c1Cl [Example L-49]
73%	CC(Oc1cc(-c2ccc(C(=O)NCC(C)(C)CO)cc2)cnc1N)c1c(Cl)ccc(F)c1Cl [Example L-50]
73%	C[C@H](Oc1cc(-c2ccc(C(=O)N[C@H]3CC[C@H](O)CC3)cc2)cnc1N)c1c(Cl)ccc(F)c1Cl [Example L-51]
66%	CCOC(=O)N1CCC(NC(=O)c2ccc(-c3cnc(N)c(OC(C)c4c(Cl)ccc(F)c4Cl)c3)cc2)CC1 [Example L-52]
95%	COCCCNC(=O)c1ccc(-c2cnc(N)c(OC(C)c3c(Cl)ccc(F)c3Cl)c2)cc1 [Example L-54]
83%	CC(O)CNC(=O)c1ccc(-c2cnc(N)c(OC(C)c3c(Cl)ccc(F)c3Cl)c2)cc1 [Example L-56]
76%	Cc1cnc(CNC(=O)c2ccc(-c3cnc(N)c(OC(C)c4c(Cl)ccc(F)c4Cl)c3)cc2)cn1 [Example L-57]
78%	CC(Oc1cc(-c2ccc(C(=O)NCC(F)(F)F)cc2)cnc1N)c1c(Cl)ccc(F)c1Cl [Example L-58]
81%	CC(Oc1cc(-c2ccc(C(=O)NCC3(O)CCCCC3)cc2)cnc1N)c1c(Cl)ccc(F)c1Cl [Example L-59]
83%	CC(Oc1cc(-c2ccc(C(=O)NCCCN3CCCC3=O)cc2)cnc1N)c1c(Cl)ccc(F)c1Cl [Example L-60]
71%	CC(Oc1cc(-c2ccc(C(=O)NCCc3ccc(O)cc3)cc2)cnc1N)c1c(Cl)ccc(F)c1Cl [Example L-61]
94%	CCN(CCO)C(=O)c1ccc(-c2cnc(N)c(OC(C)c3c(Cl)ccc(F)c3Cl)c2)cc1 [Example L-62]
85%	CC(Oc1cc(-c2ccc(C(=O)NCCN(C)C)cc2)cnc1N)c1c(Cl)ccc(F)c1Cl [Example L-64]
79%	CCN1CC(NC(=O)c2ccc(-c3cnc(N)c(OC(C)c4c(Cl)ccc(F)c4Cl)c3)cc2)CN1CC [Example L-65]
73%	CCCNC(=O)c1ccc(-c2cnc(N)c(OC(C)c3c(Cl)ccc(F)c3Cl)c2)cc1 [Example L-66]
53%	CC(C)CCNC(=O)c1ccc(-c2cnc(N)c(OC(C)c3c(Cl)ccc(F)c3Cl)c2)cc1 [Example L-67]
70%	CCOC(=O)CN1CCN(C(=O)c2ccc(-c3cnc(N)c(OC(C)c4c(Cl)ccc(F)c4Cl)c3)cc2)CC1 [Example L-68]
66%	CC(Oc1cc(-c2ccc(C(=O)NCCc3c[nH]c4ccc(O)cc34)cc2)cnc1N)c1c(Cl)ccc(F)c1Cl [Example L-69]
71%	CC(Oc1cc(-c2ccc(C(=O)NC3CCC3)cc2)cnc1N)c1c(Cl)ccc(F)c1Cl [Example L-70]

inhibition at 0.05 µM	Structure (SMILES)
92%	CC(Oc1cc(-c2ccc(C(=O)N(C)C3CCN(C)C3)cc2)cnc1N)c1c(Cl)ccc(F)c1Cl [Example L-71]
62%	CC(Oc1cc(-c2ccc(C(=O)NCC(C)(C)C)cc2)cnc1N)c1c(Cl)ccc(F)c1Cl [Example L-72]
90%	CC(Oc1cc(-c2ccc(C(=O)N3CCCCC3CN3CCCCC3)cc2)cnc1N)c1c(Cl)ccc(F)c1Cl [Example L-73]
65%	C[C@H](Oc1cc(-c2ccc(C(=O)NC3C[C@@H]3c3ccccc3)cc2)cnc1N)c1c(Cl)ccc(F)c1Cl (stereo partly drawn) [Example L-74]
53%	CC(Oc1cc(-c2ccc(C(=O)NCCc3c(Cl)cccc3Cl)cc2)cnc1N)c1c(Cl)ccc(F)c1Cl [Example L-75]
73%	CC(Oc1cc(-c2ccc(C(=O)N(C)CCc3ccncc3)cc2)cnc1N)c1c(Cl)ccc(F)c1Cl [Example L-76]
54%	CC(Oc1cc(-c2ccc(C(=O)NCc3ccc(OC(F)(F)F)cc3)cc2)cnc1N)c1c(Cl)ccc(F)c1Cl [Example L-77]
68%	CC(Oc1cc(-c2ccc(C(=O)N(C)CCC#N)cc2)cnc1N)c1c(Cl)ccc(F)c1Cl [Example L-78]
73%	COCCNC(=O)c1ccc(-c2cnc(N)c(OC(C)c3c(Cl)ccc(F)c3Cl)c2)cc1 [Example L-79]
60%	C[C@H](Oc1cc(-c2ccc(C(=O)N[C@@H](C)C3CCCCC3)cc2)cnc1N)c1c(Cl)ccc(F)c1Cl [Example L-80]
67%	CC(Oc1cc(-c2ccc(C(=O)NC3(CO)CCCC3)cc2)cnc1N)c1c(Cl)ccc(F)c1Cl [Example L-81]
74%	CC(C)[C@@H](CO)NC(=O)c1ccc(-c2cnc(N)c(O[C@@H](C)c3c(Cl)ccc(F)c3Cl)c2)cc1 [Example L-82]
54%	C[C@H](Oc1cc(-c2ccc(C(=O)N[C@H](C)C3CCCCC3)cc2)cnc1N)c1c(Cl)ccc(F)c1Cl [Example L-83]
67%	C[C@H](Oc1cc(-c2ccc(C(=O)NC[C@@H]3CCCC[C@H]3O)cc2)cnc1N)c1c(Cl)ccc(F)c1Cl [Example L-84]
57%	CCOC(=O)C1CCN(C(=O)c2ccc(-c3cnc(N)c(OC(C)c4c(Cl)ccc(F)c4Cl)c3)cc2)CC1 [Example L-86]
56%	CC(Oc1cc(-c2ccc(C(=O)NC3CCCCC3)cc2)cnc1N)c1c(Cl)ccc(F)c1Cl [Example L-87]
90%	CC(Oc1cc(-c2ccc(C(=O)NCCCN3CCCC3)cc2)cnc1N)c1c(Cl)ccc(F)c1Cl [Example L-88]
96%	CC(Oc1cc(-c2ccc(C(=O)N3CCN(c4ccncc4)CC3)cc2)cnc1N)c1c(Cl)ccc(F)c1Cl [Example L-89]
85%	CC(Oc1cc(-c2ccc(C(=O)N3CCN(CCN(C)C)CC3)cc2)cnc1N)c1c(Cl)ccc(F)c1Cl [Example L-90]
69%	C[C@H](Oc1cc(-c2ccc(C(=O)NC[C@H](O)c3ccccc3)cc2)cnc1N)c1c(Cl)ccc(F)c1Cl [Example L-91]
64%	COc1cc(CCNC(=O)c2ccc(-c3cnc(N)c(OC(C)c4c(Cl)ccc(F)c4Cl)c3)cc2)ccc1O [Example L-92]
62%	CC(NC(=O)c1ccc(-c2cnc(N)c(OC(C)c3c(Cl)ccc(F)c3Cl)c2)cc1)c1ccc(O)cc1 [Example L-93]
51%	CC(Oc1cc(-c2ccc(C(=O)NCCc3cccc(C(F)(F)F)c3)cc2)cnc1N)c1c(Cl)ccc(F)c1Cl [Example L-94]

inhibition at 0.05 µM	Structure (SMILES)
61%	CC(Oc1cc(-c2ccc(C(=O)NC[C@@H]3CCCO3)cc2)cnc1N)c1c(Cl)ccc(F)c1Cl (stereo partly drawn) [Example L-96]
60%	C[C@H](Oc1cc(-c2ccc(C(=O)NC[C@H]3CCCO3)cc2)cnc1N)c1c(Cl)ccc(F)c1Cl [Example L-97]
83%	CC(Oc1cc(-c2ccc(C(=O)N(C)CC#N)cc2)cnc1N)c1c(Cl)ccc(F)c1Cl [Example L-99]
79%	C[C@H](Oc1cc(-c2ccc(C(=O)NC[C@@H](C)O)cc2)cnc1N)c1c(Cl)ccc(F)c1Cl [Example L-101]
82%	CNC(=O)c1ccc(-c2cnc(N)c(OC(C)c3c(Cl)ccc(F)c3Cl)c2)cc1 [Example L-102]
91%	CC(Oc1cc(-c2ccc(C(=O)N3CCOCC3)cc2)cnc1N)c1c(Cl)ccc(F)c1Cl [Example L-103]
89%	CC(Oc1cc(-c2ccc(C(=O)N(C)CCO)cc2)cnc1N)c1c(Cl)ccc(F)c1Cl [Example L-104]
89%	CC(Oc1cc(-c2ccc(C(=O)NCCO)cc2)cnc1N)c1c(Cl)ccc(F)c1Cl [Example L-106]
87%	CC(=O)N[C@@H]1CCN(C(=O)c2ccc(-c3cnc(N)c(OC(C)c4c(Cl)ccc(F)c4Cl)c3)cc2)C1 (stereo partly drawn) [Example L-107]
70%	CCOCCCNC(=O)c1ccc(-c2cnc(N)c(OC(C)c3c(Cl)ccc(F)c3Cl)c2)cc1 [Example L-108]
76%	CC(Oc1cc(-c2ccc(C(=O)NCCC#N)cc2)cnc1N)c1c(Cl)ccc(F)c1Cl [Example L-109]
71%	CC(C)NC(=O)c1ccc(-c2cnc(N)c(OC(C)c3c(Cl)ccc(F)c3Cl)c2)cc1 [Example L-110]
71%	CC(Oc1cc(-c2ccc(C(=O)NCCc3ccncc3)cc2)cnc1N)c1c(Cl)ccc(F)c1Cl [Example L-111]
85%	CC(Oc1cc(-c2ccc(C(=O)N(C)CCN(C)C)cc2)cnc1N)c1c(Cl)ccc(F)c1Cl [Example L-112]
57%	COc1cc(CNC(=O)c2ccc(-c3cnc(N)c(OC(C)c4c(Cl)ccc(F)c4Cl)c3)cc2)cc(OC)c1 [Example L-113]
63%	CCCCN(C)C(=O)c1ccc(-c2cnc(N)c(OC(C)c3c(Cl)ccc(F)c3Cl)c2)cc1 [Example L-115]
62%	CC(C)OCCCNC(=O)c1ccc(-c2cnc(N)c(OC(C)c3c(Cl)ccc(F)c3Cl)c2)cc1 [Example L-116]
60%	CC(C)CNC(=O)c1ccc(-c2cnc(N)c(OC(C)c3c(Cl)ccc(F)c3Cl)c2)cc1 [Example L-117]
86%	CCN(CCN(C)C)C(=O)c1ccc(-c2cnc(N)c(OC(C)c3c(Cl)ccc(F)c3Cl)c2)cc1 [Example L-118]
63%	CCOCCNC(=O)c1ccc(-c2cnc(N)c(OC(C)c3c(Cl)ccc(F)c3Cl)c2)cc1 [Example L-120]
75%	CC(Oc1cc(-c2ccc(C(=O)NCc3ccc(CN(C)C)cc3)cc2)cnc1N)c1c(Cl)ccc(F)c1Cl [Example L-121]
61%	CC(Oc1cc(-c2ccc(C(=O)NCC3CC3)cc2)cnc1N)c1c(Cl)ccc(F)c1Cl [Example L-122]
